Experimental findings from US10053457B2, “Hydroxyalkyl-piperazine derivatives as CXCR3 receptor modulators” (IDORSIA PHARMACEUTICALS LTD, priority 2015, dated 2018) are described below.

SMILES strings stand for the structures. pIC50: −log10 of the molar value.

Holding throughout (assay type): cell-based
Data set [1] concerns the target human CXCR3A (Homo sapiens (Human), UniProt P49682). Put plainly: FLIPR assay (CXCL10-induced calcium signal). The note with it: CHO-K1 cells expressing human CXCR3A coupled to Galpha(16); CXCL10 agonist 20 nM; mean values. The text has this: (§1) In the case where IC50 values have been determined several times for the same compound, mean values are given.
Data set [2] concerns the target CXCR3 (Homo sapiens (Human), UniProt P49682). The data set is described as follows: Receptor internalization assay in human whole blood (CXCR3 surface expression on CD4 positive cells, CXCL10). The note with it: final CXCL10 9 nM, 30 min at 37° C., mean values. The procedure: Diluted compounds are then mixed with an equal volume of CXCL10 (Peprotech) diluted in PBS. Anticoagulated venous human whole blood is added to the mixture, which is then incubated in a CO2 incubator at 37° C. to allow for ligand mediated receptor internalization (final CXCL10 concentration is 9 nM). After 30 min, the blood is mixed with fluorescently labeled CXCR3 and CD4 specific antibodies (Becton Dickinson) and incubated on ice for 10 minutes. Samples are then mixed with BD FACS Lysing Solution (Becton Dickinson) in order to eliminate red blood cells. After washing the cells with PBS containing 0.5% BSA, the samples are then analyzed in a flow cytometer (FACS Canto II, Becton Dickinson). For data analysis using FACSDiva software (Becton Dickinson), the mean fluorescence corresponding to CXCR3 cell surface expression was determined on CD4 positive cells. The program GraphPad Prism or similar software is used to fit the data to a single site dose response curve and to calculate IC50 values.
as §1

Data set [3] addresses hERG K channel (Homo sapiens (Human), UniProt Q12809). The data set is described as follows: hERG Q-Patch assay. The following applies: CHO cells expressing hERG, K+ tail current 3 min after application, mean of two or three experiments. As to the method:
Compounds are evaluated for block of the hERG K channel using CHO cells stably expressing the hERG gene (accession number U04270, bSys, Witterswil, Switzerland) and the QPatch robotic platform (Sophion, Ballerup, Denmark) in single-cell mode at room temperature. Cells are grown in culture flasks at 37° C. in 5% CO2, in culture medium (Ham's F-12 Nutrient Mixture, Invitrogen 21765-029) supplemented with 9% (v/v) fetal calf serum, 0.9% Penicillin/Streptomycin (10,000 U/mL, Invitrogen 15140148), 100 μg/mL Hygromycin B (Invitrogen 10687010). When the cells are ˜80% confluent (every 2-3 days), they are either split for further culture or used for electrophysiology. For further culture, cells are detached with 0.25% Trypsin EDTA solution (Invitrogen 25200-056) and a fraction of the cells (10-30%) is reseeded in culture medium. For electrophysiology, on the experimental day, cells are detached with 0.25% Trypsin EDTA solution and all cells are suspended in suspension medium (293 SFM II, Invitrogen 11686-029) supplemented with 20 mM HEPES and 0.04 mg/mL Trypsin inhibitor. Cells are kept in suspension medium at 32-35° C. in the QPatch robot until use, at which time aliquots are transferred to the extracellular solution (in mM: NaCl 150; KCl 4; CaCl2 1.2; MgCl2 1; HEPES 10; pH 7.4 with NaOH) containing 0.3% v/v DMSO and applied to the test plates. K^+ currents are measured with the patch-voltage-clamp technique in the whole-cell configuration with the internal solution (in mM: KCl, 140; NaCl, 10; MgCl2, 1; HEPES, 10: EGTA, 5; pH=7.2 with KOH). Currents are low-pass filtered using the internal Bessel filter of the QPatch robot with a cut-off frequency of 2 kHz and are digitized at 10 kHz. K^+ tail currents are produced from a holding voltage of −80 mV by a 500-ms depolarization to +20 mV followed by a 500-ms repolarization to −40 mV; tail current amplitudes are measured at the end of the repolarization to −40 mV. The pulse pattern is repeated every 10 sec during the experiment, baseline K^+ current is measured after 3 min in extracellular solution, test-solution containing compound is then applied, and K^+ current in presence of compound is measured 3 minutes after application to the cells. The respective test-solution is prepared by (1) dissolving the test-compound in pure DMSO, (2) diluting this DMSO solution in extracellular solution, and (3) adding further DMSO, such that the final test-solution has a concentration of either 300 nM or 3000 nM of the test-compound and contains 0.3% v/v DMSO. Compound effects are quantified as % block by dividing the current in presence of compound by the baseline current; two or three experiments are performed for each compound and the final value represents the mean of the results of each experiment.
A general note: hERG is a cardiac potassium channel; its block is linked to QT prolongation.

Sequence of CXCR3 (P49682 whole entry): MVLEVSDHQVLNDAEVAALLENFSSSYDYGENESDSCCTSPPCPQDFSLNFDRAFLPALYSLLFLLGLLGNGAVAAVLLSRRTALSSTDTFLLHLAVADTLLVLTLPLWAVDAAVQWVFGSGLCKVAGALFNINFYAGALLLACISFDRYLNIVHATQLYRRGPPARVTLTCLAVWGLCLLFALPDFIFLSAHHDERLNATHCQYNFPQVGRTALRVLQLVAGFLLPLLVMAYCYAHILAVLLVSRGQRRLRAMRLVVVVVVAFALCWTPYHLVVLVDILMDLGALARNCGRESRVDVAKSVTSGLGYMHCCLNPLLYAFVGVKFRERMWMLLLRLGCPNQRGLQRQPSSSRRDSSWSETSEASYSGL
Sequence of human CXCR3A (P49682 whole entry): as above
Sequence of hERG K channel (Q12809 whole entry): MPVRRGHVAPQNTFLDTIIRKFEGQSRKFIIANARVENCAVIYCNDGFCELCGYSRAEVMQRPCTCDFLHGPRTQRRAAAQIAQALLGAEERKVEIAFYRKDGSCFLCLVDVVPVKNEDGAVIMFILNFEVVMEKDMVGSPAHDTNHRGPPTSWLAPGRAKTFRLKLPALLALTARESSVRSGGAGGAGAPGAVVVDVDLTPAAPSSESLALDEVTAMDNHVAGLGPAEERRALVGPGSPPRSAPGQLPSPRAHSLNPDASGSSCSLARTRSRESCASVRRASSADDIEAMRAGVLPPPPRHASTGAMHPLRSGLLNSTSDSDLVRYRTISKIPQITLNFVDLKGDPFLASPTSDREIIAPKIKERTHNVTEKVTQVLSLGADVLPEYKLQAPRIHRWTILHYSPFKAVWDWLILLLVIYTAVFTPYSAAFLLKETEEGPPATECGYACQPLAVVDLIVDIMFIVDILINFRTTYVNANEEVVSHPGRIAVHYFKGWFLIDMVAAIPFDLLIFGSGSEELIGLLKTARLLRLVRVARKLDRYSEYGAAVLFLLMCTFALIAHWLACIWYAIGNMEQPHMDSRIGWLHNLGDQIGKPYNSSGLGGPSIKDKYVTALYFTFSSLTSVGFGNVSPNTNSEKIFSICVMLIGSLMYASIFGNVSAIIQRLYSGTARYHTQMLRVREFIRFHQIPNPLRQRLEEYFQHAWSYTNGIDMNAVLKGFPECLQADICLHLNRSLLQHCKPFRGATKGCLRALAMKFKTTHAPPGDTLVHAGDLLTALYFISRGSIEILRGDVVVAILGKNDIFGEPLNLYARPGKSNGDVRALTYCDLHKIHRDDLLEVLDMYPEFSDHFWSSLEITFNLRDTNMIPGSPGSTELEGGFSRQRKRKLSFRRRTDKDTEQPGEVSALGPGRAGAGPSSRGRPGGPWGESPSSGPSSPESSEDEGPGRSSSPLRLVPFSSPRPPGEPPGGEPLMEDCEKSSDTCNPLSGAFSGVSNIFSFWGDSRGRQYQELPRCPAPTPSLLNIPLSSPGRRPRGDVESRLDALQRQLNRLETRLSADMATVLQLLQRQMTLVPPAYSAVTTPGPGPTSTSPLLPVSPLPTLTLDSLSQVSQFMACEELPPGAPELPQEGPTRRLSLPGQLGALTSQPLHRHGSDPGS

Usually pIC50 stands for −log10 of the IC50, conventionally taken in molar units. As for `COCc1ncn(CC(=O)N2CCN(c3sc(C(F)(F)F)nc3-c3cnc(C(F)(F)F)nc3)C[C@@H]2CO)n1` [Example 17, 1-{(R)-2-Hydroxymethyl-4-[2-trifluoromethyl-4-(2-trifluoromethyl-pyrimidin-5-yl)-thiazol-5-yl]-piperazin-1-yl}-2-(3-methoxymethyl-[1,2,4]triazol-1-yl)-ethanone], the values for the pIC50 in data set [1] and in data set [2] were 8.23 and 5.89, respectively. Also, the “% block” value in data set [3] (concentration 300 nM) was 2%; in data set [3] (concentration 3000 nM) it was 6%.

Take `Cc1nc(-c2ncn(CC(=O)N3CCN(c4sc(C(F)(F)F)nc4-c4cnc(C(F)(F)F)nc4)C[C@@H]3CO)n2)no1` [Example 18, 1-{(R)-2-Hydroxymethyl-4-[2-trifluoromethyl-4-(2-trifluoromethyl-pyrimidin-5-yl)-thiazol-5-yl]-piperazin-1-yl}-2-[3-(5-methyl-[1,2,4]oxadiazol-3-yl)-[1,2,4]triazol-1-yl]-ethanone]: the pIC50 was 6.29 in data set [1] and 5.19 in data set [2]. For the same compound, the “% block” value in data set [3] (concentration 300 nM) is given as 6%; in data set [3] (concentration 3000 nM), 13%.

For the compound `O=C(Cn1cnc(-c2ccccc2)n1)N1CCN(c2sc(C(F)(F)F)nc2-c2cnc(C(F)(F)F)nc2)C[C@@H]1CO` [Example 19, 1-{(R)-2-Hydroxymethyl-4-[2-trifluoromethyl-4-(2-trifluoromethyl-pyrimidin-5-yl)-thiazol-5-yl]-piperazin-1-yl}-2-(3-phenyl-[1,2,4]triazol-1-yl)-ethanone], the pIC50 in data set [1] is 7.38; in data set [2], 5.48. The “% block” value worked out at 6% in data set [3] (concentration 300 nM) and 41% in data set [3] (concentration 3000 nM).

On to `CC(=O)c1ncn(CC(=O)N2CCN(c3sc(C(F)(F)F)nc3-c3cnc(C(F)(F)F)nc3)C[C@@H]2CO)n1` [Example 20, 2-(3-Acetyl-[1,2,4]triazol-1-yl)-1-{(R)-2-hydroxymethyl-4-[2-trifluoromethyl-4-(2-trifluoromethyl-pyrimidin-5-yl)-thiazol-5-yl]-piperazin-1-yl}-ethanone], for which the pIC50 in data set [1] was 8.19; in data set [2] it was 5.62. The “% block” value in data set [3] (concentration 300 nM) is 2%; in data set [3] (concentration 3000 nM), 3%.

As for `Cc1ccn(CC(=O)N2CCN(c3sc(C(F)(F)F)nc3-c3cnc(C(F)(F)F)nc3)C[C@@H]2CO)n1` [Example 22, 1-{(R)-2-Hydroxymethyl-4-[2-trifluoromethyl-4-(2-trifluoromethyl-pyrimidin-5-yl)-thiazol-5-yl]-piperazin-1-yl}-2-(3-methyl-pyrazol-1-yl)-ethanone], the figures for the pIC50 in data set [1] and in data set [2] were 8.80 and 6.98, respectively. For the same compound, the “% block” value stood at 4% in data set [3] (concentration 300 nM) and 15% in data set [3] (concentration 3000 nM).

With `Cc1nc(C)n(CC(=O)N2CCN(c3sc(C(F)(F)F)nc3-c3cnc(C(F)(F)F)nc3)C[C@H]2CCO)n1` [Example 27, 2-(3,5-Dimethyl-[1,2,4]triazol-1-yl)-1-{(R)-2-(2-hydroxy-ethyl)-4-[2-trifluoromethyl-4-(2-trifluoromethyl-pyrimidin-5-yl)-thiazol-5-yl]-piperazin-1-yl}-ethanone], the pIC50 in data set [1] is 8.28; in data set [2], 6.63. In addition, the “% block” value is on record as 1% in data set [3] (concentration 300 nM) and 4% in data set [3] (concentration 3000 nM).

For the compound `O=C(Cn1cnc(C(F)(F)F)n1)N1CCN(c2sc(C(F)(F)F)nc2-c2cnc(C(F)(F)F)nc2)C[C@H]1CCO` [Example 28, 1-{(R)-2-(2-Hydroxy-ethyl)-4-[2-trifluoromethyl-4-(2-trifluoromethyl-pyrimidin-5-yl)-thiazol-5-yl]-piperazin-1-yl}-2-(3-trifluoromethyl-[1,2,4]triazol-1-yl)-ethanone], the pIC50 in data set [1] was 8.96; in data set [2], 6.67. Further, the “% block” value in data set [3] (concentration 300 nM) was 6%; in data set [3] (concentration 3000 nM) it was 40%.

For the compound `O=C(Cn1cnc(C2CCC2)n1)N1CCN(c2sc(C(F)(F)F)nc2-c2cnc(C(F)(F)F)nc2)C[C@H]1CCO` [Example 29, 2-(3-Cyclobutyl-[1,2,4]triazol-1-yl)-1-{(R)-2-(2-hydroxy-ethyl)-4-[2-trifluoromethyl-4-(2-trifluoromethyl-pyrimidin-5-yl)-thiazol-5-yl]-piperazin-1-yl}-ethanone], the figures for the pIC50 in data set [1] and in data set [2] were 8.26 and 6.80, respectively. In addition, the “% block” value was 4% in data set [3] (concentration 300 nM) and 38% in data set [3] (concentration 3000 nM).

For the compound `CC(C)(C)c1ncn(CC(=O)N2CCN(c3sc(C(F)(F)F)nc3-c3cnc(C(F)(F)F)nc3)C[C@H]2CCO)n1` [Example 30, 2-(3-tert-Butyl-[1,2,4]triazol-1-yl)-1-{(R)-2-(2-hydroxy-ethyl)-4-[2-trifluoromethyl-4-(2-trifluoromethyl-pyrimidin-5-yl)-thiazol-5-yl]-piperazin-1-yl}-ethanone], the values for the pIC50 in data set [1] and in data set [2] were 8.36 and 6.77, respectively. Moreover, the “% block” value is listed as −2% in data set [3] (concentration 300 nM) and 25% in data set [3] (concentration 3000 nM).

Turning to `O=C(Cn1cnc(C2CC2)n1)N1CCN(c2sc(C(F)(F)F)nc2-c2cnc(C(F)(F)F)nc2)C[C@H]1CCO` [Example 31, 2-(3-Cyclopropyl-[1,2,4]triazol-1-yl)-1-{(R)-2-(2-hydroxy-ethyl)-4-[2-trifluoromethyl-4-(2-trifluoromethyl-pyrimidin-5-yl)-thiazol-5-yl]-piperazin-1-yl}-ethanone], the pIC50 was 8.36 in data set [1] and 7.13 in data set [2]. In addition, the entries for the “% block” value in data set [3] (concentration 300 nM) and in data set [3] (concentration 3000 nM) were 2% and 23%, respectively.

Regarding `CCc1ncn(CC(=O)N2CCN(c3sc(C(F)(F)F)nc3-c3cnc(C(F)(F)F)nc3)C[C@H]2CCO)n1` [Example 32, 2-(3-Ethyl-[1,2,4]triazol-1-yl)-1-{(R)-2-(2-hydroxy-ethyl)-4-[2-trifluoromethyl-4-(2-trifluoromethyl-pyrimidin-5-yl)-thiazol-5-yl]-piperazin-1-yl}-ethanone], the pIC50 in data set [1] is 8.59; in data set [2] it was 7.03. For the same compound, the entries for the “% block” value in data set [3] (concentration 300 nM) and in data set [3] (concentration 3000 nM) were 0% and 19%, respectively.

For `CCc1ncnn1CC(=O)N1CCN(c2sc(C(F)(F)F)nc2-c2cnc(C(F)(F)F)nc2)C[C@H]1CCO` [Example 33, 2-(5-Ethyl-[1,2,4]triazol-1-yl)-1-{(R)-2-(2-hydroxy-ethyl)-4-[2-trifluoromethyl-4-(2-trifluoromethyl-pyrimidin-5-yl)-thiazol-5-yl]-piperazin-1-yl}-ethanone], the pIC50 in data set [1] was 7.57; in data set [2] it was 6.19. The results for the “% block” value in data set [3] (concentration 300 nM) and in data set [3] (concentration 3000 nM) were −5% and 6%, respectively.

With `CC(C)c1ncn(CC(=O)N2CCN(c3sc(C(F)(F)F)nc3-c3cnc(C(F)(F)F)nc3)C[C@H]2CCO)n1` [Example 34, 1-{(R)-2-(2-Hydroxy-ethyl)-4-[2-trifluoromethyl-4-(2-trifluoromethyl-pyrimidin-5-yl)-thiazol-5-yl]-piperazin-1-yl}-2-(3-isopropyl-[1,2,4]triazol-1-yl)-ethanone], the pIC50 in data set [1] was 8.35; in data set [2] it was 7.07. For the same compound, the “% block” value came out at 10% in data set [3] (concentration 300 nM) and 34% in data set [3] (concentration 3000 nM).
